Results from patent publication US11234984B2, “Solid dispersion” (Shizuoka Prefectural University Corporation, priority 2017, dated 2022).
In brackets after ≈: the same amount, converted by molar mass. Like-named read-outs stand apart in the source and are kept apart here.

Tests used:
[1] = Test Example 2. Absorbability of the solid dispersion containing the compound A in rats; format: in vivo; details: male, Crl:CD (SD), rat, plasma, po, 30 mg/kg, single dose 30 mg/kg as compound A, mean ± SD n=3
Description: A single dose of 10 mg/kg or 30 mg/kg, as the compound A, of the solid dispersions of Example 2 and Comparative Example 10, and the sample of Comparative Example 11 suspended in a 1% carboxymethylcellulose aqueous solution was orally administered to fasted male rats (8 weeks old, Crl:CD (SD), Japan Charles River Laboratories). A crystalline form of the compound A was used as a control (Comparative Example 12). A collection time was 0.5, 1, 2, 4, 8, and 24 hours after administration, and about 300 μL of blood was collected at each time point from vena caudalis (n=3). The obtained blood was centrifuged at 1500×g, 4° C. for 15 minutes to obtain a plasma. The concentration of the compound A in the plasma was measured by HPLC (Shiseido and Hitachi High-Technologies Corporation). A time to reach the highest concentration in the plasma (Tmax), the highest concentration in the plasma (Cmax) and an area under the plasma concentration-time curve (AUC) were calculated from the change in the concentration in the obtained plasma. Here, values in the table are the mean value±standard deviation of three examples.

[2] = Test Example 1. Solubility Test; format: physicochemical; details: thermodynamic from solid, shaken at 37° C. for 2 hours, mean of two measurements, read-out: Solubility of Compound A
Description: 5 mL of a first fluid (pH1.2) or 5 mL of a […] for an elution test in Japanese Pharmacopoeia was added to the solid dispersions of Example 1 and Comparative Examples 1 to 8, and the sample of Comparative Example 9, the solid dispersions were ground using a glass rod or a spatula, and then shaken at 37° C. for 2 hours. 400 μL of a mixed solution (acetonitrile/water=3/2) was immediately added to 600 μL of the sample solution filtered off using a 0.45 μm filter, and a concentration of the compound A in the sample solution was measured by HPLC (Shimadzu Corporation). Here, values in the table are the mean values obtained by repeating measurements twice.

Row | Tmax [1] [h] | solubility at 2 h ([2]; pH 1.2, simulated gastric fluid, First fluid for dissolution test (pH1.2)) [µg/mL] | solubility at 2 h ([2]; pH 6.8, aqueous buffer, Second fluid for dissolution test (pH6.8)) [µg/mL] | Structure (SMILES)
1 | 3.7 ± 3.8 | – | – | N#Cc1cc(-c2nc3c(O)ncnc3s2)ccc1Oc1ccccc1 [Comparative Example 11, 2-(3-cyano-4-phenoxyphenyl)-7-hydroxythiazolo[5,4-d]pyrimidine]
2 | – | 0.39 (≈ 1.13 µM) | 0.49 (≈ 1.41 µM) | N#Cc1cc(-c2nc3c(O)ncnc3s2)ccc1Oc1ccccc1 [Comparative Example 9, 2-(3-cyano-4-phenoxyphenyl)-7-hydroxythiazolo[5,4-d]pyrimidine]
